Experiment [1] deals with TNF-alpha production by human PBMC. In words: TNF-alpha production by human PBMC (ELISA). As to conditions: for TNFa production: cytokine secretion of hPBMC after stimulation with thiosemicarbazone compounds; for SMIP activity (cytokine induction, TNF-alpha and IL-12 p40, % of LPS activity): human PBMC, 5 μM, FIG. 4. The format is cell-based. As for the experimental part: Candidate small molecule immuno-potentiators can be identified in vitro. Compounds are screened in vitro for their ability to stimulate human peripheral blood mononuclear cells to produce cytokines (e.g. TNF-alpha and IL-12 p40). HCV antivirals were identified having this activity. These small molecule immuno-potentiators have potential utility as adjuvants and immuno-therapeutics.
TNF-alpha production by human PBMC was measured using a commercial ELISA from supernatants of cells stimulated with the indicated compounds for 18 to 24 hours All test compounds were used at a final concentration of 5 μM/ml. Untreated PBMC (Cells) and LPS (0.1 ng/ml), CPG (10 ng/ml) and/or ALTTE (5 μM/ml) treated PBMC served as negative and positive controls, respectively.
Table 2. Cytokine secretion of hPBMC after stimulation with thiosemicarbazone compounds.
High Throughput Screening (ITS) for small molecule immune potentiators; SMIPs: Attention is drawn to FIG. 3. Various compounds were evaluated for their ability to produce cytokines in response to the small molecule compounds using a modified sandwich ELISA. Compounds are screened for their TNF inducing. “Hits” are selected based on their TNF-inducing activity relative to an optimal dose a strong TNF inducer. The robustness of the assay and low backgrounds have allowed for the routine selection of hits with ˜10% of this activity which is normally between 5-10× background (cells alone). Selected hits are then subjected to confirmation for their ability to induce cytokines from multiple donors at decreasing concentrations. Those compounds with consistent activity at or below 5 μM are considered confirmed.
Thiosemicarbazones compounds with and without anti-HCV activity were screened for their capacity to activate immune cells. Structural analogs of this scaffold have been tested for their ability to induce cytokines from human PBMC and murine splenocytes. […] All compounds were tested at a final concentration of 5 μM except for poly I:C (PIC) and the 1806 oligodinucleotide (CpG) which were used at 10 μg/ml and 10 ng/ml respectively.
For orientation: In an ELISA, binding on a coated surface is turned into a signal by an enzyme label.

Experiment [2] has as its system HCV replicon RNA in Huh-11-7 or Huh 9-13 cells. In words: HCV replicon cell based assay (quantification of HCV replicon RNA by RT-PCR, normalized to GAPDH). Conditions: separate/independent assays. As for the experimental part:
Quantification of HCV replicon RNA in Cell Lines (HCV Cell Based Assay):
Cell lines, including Huh-11-7 or Huh 9-13, harboring HCV replicons (Lohmann, et al Science 285:110-113, 1999) are seeded at 5×10^3 cells/well in 96 well plates and fed media containing DMEM (high glucose), 10% fetal calf serum, penicillin-streptomycin and non-essential amino acids. Cells are incubated in a 5% CO2 incubator at 37° C. At the end of the incubation period, total RNA is extracted and purified from cells using Qiagen Rneasy 96 Kit (Catalog No. 74182). To amplify the HCV RNA so that sufficient material can be detected by an HCV specific probe (below), primers specific for HCV (below) mediate both the reverse transcription (RT) of the HCV RNA and the amplification of the cDNA by polymerase chain reaction (PCR) using the TaqMan One-Step RT-PCR Master Mix Kit (Applied Biosystems catalog no. 4309169). […]
Detection of the RT-PCR product was accomplished using the Applied Biosystem (ABI) Prism 7700 Sequence Detection System (SDS) that detects the fluorescence that is emitted when the probe, which is labeled with a fluorescence reporter dye and a quencher dye, is processed during the PCR reaction. The increase in the amount of fluorescence is measured during each cycle of PCR and reflects the increasing amount of RT-PCR product. […] The data is analyzed using the ABI SDS program version 1.7. […]
A general note: Replicon systems follow genome replication, usually without infectious particles.

In the case of `NC(=S)N/N=C/c1cccc(OCc2ccccc2)c1` [Example 7, 3-[(phenylmethyl)oxy]benzaldehydethiosemicarbazone], in experiment [1], the TNFa production stood at 0 ng/10^6 cells/ml.

As to `NC(=S)N/N=C/c1ccc(-c2cccc(Cl)c2)o1` [Example 12, 5-(3-chlorophenyl)furan-2-carbaldehyde thiosemicarbazone], the TNFa production in experiment [1] is listed as 2.32 ng/10^6 cells/ml.

As for `CCN(CC)c1ccc(/C=N/NC(N)=S)c(OCc2ccc(Cl)cc2)c1` [Example 29, 2-{[(4-chlorophenyl)methyl]oxy}-4-(diethylamino)benzaldehydethiosemicarbazone], the “SMIP activity (cytokine induction, TNF-alpha and IL-12 p40, % of LPS activity)” value in experiment [1] is “possess both SMIP and anti-HCV activity”. The anti-HCV activity entry in experiment [2] was “possess both SMIP and anti-HCV activity”.

For the compound `COc1cc(/C=N/NC(N)=S)cc(Br)c1OCc1ccccc1F` [Example 39, 3-bromo-4-{[(2-fluorophenyl)methyl]oxy}-5-(methyloxy)benzaldehydethiosemicarbazone], in experiment [1], the TNFa production was 5 ng/10^6 cells/ml.

Regarding `NC(=S)N/N=C/c1ccc(NCCc2cccc(Cl)c2)c([N+](=O)[O-])c1` [Example 86, 4-{[2-(3-chlorophenyl)ethyl]amino}-3-nitrobenzaldehydethiosemicarbazone], in experiment [1], the TNFa production turned out to be 5 ng/10^6 cells/ml.

Turning to `NC(=S)N/N=C/c1ccc(NCCc2ccc(Cl)cc2)c([N+](=O)[O-])c1` [Example 87, 4-{[2-(4-chlorophenyl)ethyl]amino}-3-nitrobenzaldehydethiosemicarbazone], the TNFa production in experiment [1] was 1.25 ng/10^6 cells/ml.

Regarding `NC(=S)N/N=C/c1ccccn1` [Example 113, pyridine-2-carbaldehydethiosemicarbazone], in experiment [1], the TNFa production came to 2.34 ng/10^6 cells/ml; the “SMIP activity (cytokine induction, TNF-alpha and IL-12 p40, % of LPS activity)” value is recorded as “potent SMIP activity”. Besides, the anti-HCV activity entry in experiment [2] is reported as “weak or absent anti-HCV effects”.

For the compound `C/C(=N\NC(N)=S)c1sc(-c2ncc(C(F)(F)F)cc2Cl)nc1C` [Example 114], the TNFa production in experiment [1] is reported as 1.7 ng/10^6 cells/ml.

For `Cc1ccc2c(c1)c1c(n2C)/C(=N/NC(N)=S)CCC1` [Example 115, (1E)-6,9-dimethyl-2,3,4,9-tetrahydro-1H-carbazol-1-onethiosemicarbazone], the TNFa production in experiment [1] amounted to 1.25 ng/10^6 cells/ml.

Values taken from patent US7521062B2, “Thiosemicarbazones as anti-virals and immunopotentiators” (Novartis Vaccines & Diagnostics, Inc., priority 2002, dated 2009).
